Experimental data reported in ChEMBL document CHEMBL5046250, “Discovery of Sortase A covalent inhibitors with benzofuranene cyanide structures as potential antibacterial agents against Staphylococcus aureus” (Eur J Med Chem, 2022).
The source made the active and inactive calls. No cut-off for these calls is given here.

What was measured:
[1] = Inhibition of Staphylococcus aureus sortase A using Abz-LPATG-Dap(DNP)-NH2 as substrate preincubated for 1 hr followed by substrate addition by FRET assay
Staphylococcus aureus [2] = assay: Antibiofilm activity against Staphylococcus aureus assessed as inhibition of biofilm formation measured after 15 to 18 hrs by crystal violet staining assay; type: functional, organism-based
Staphylococcus aureus [3] = assay: Antibacterial activity against Staphylococcus aureus assessed as inhibition of bacterial invasion in HEK293T cells at 100 uM measured after 2 hrs by flow cytometry relative to control; type: functional, HEK-293T; parameters: scale not given: the % may be the effect or the level left
Staphylococcus aureus [4] = assay: Antibacterial activity against Staphylococcus aureus assessed as inhibition of bacterial invasion in HEK293T cells at 50 uM measured after 2 hrs by flow cytometry relative to control; type: functional, HEK-293T; parameters: scale not given: the % may be the effect or the level left
Staphylococcus aureus [5] = assay: Antibacterial activity against Staphylococcus aureus assessed as inhibition of bacterial invasion in HEK293T cells at 25 uM measured after 2 hrs by flow cytometry relative to control; type: functional, HEK-293T; parameters: scale not given: the % may be the effect or the level left
Staphylococcus aureus [6] = assay: Antibacterial activity against Staphylococcus aureus assessed as inhibition of bacterial invasion in HEK293T cells at 12.5 uM measured after 2 hrs by flow cytometry relative to control; type: functional, HEK-293T; parameters: scale not given: the % may be the effect or the level left
Staphylococcus aureus [7] = assay: Antibacterial activity against Staphylococcus aureus assessed as inhibition of bacterial invasion in HEK293T cells at 6.25 uM measured after 2 hrs by flow cytometry relative to control; type: functional, HEK-293T; parameters: scale not given: the % may be the effect or the level left
Staphylococcus aureus [8] = assay: Inhibition of Staphylococcus aureus sortase A assessed as reduction in SpA expression at 100 uM measured after overnight incubation by flow cytometry relative to control
Staphylococcus aureus [9] = assay: Antibiofilm activity against Staphylococcus aureus assessed as inhibition of biofilm formation measured after 15 to 18 hrs in the presence of quercetin by crystal violet staining assay; type: functional, organism-based
Staphylococcus aureus [10] = assay: Binding affinity to staphylococcus aureus sortase A assessed as covalent adduct formation by UPLC-TOF-MS analysis
Staphylococcus aureus [11] = assay: Binding affinity to staphylococcus aureus sortase A assessed as covalent adduct formation at Cys184 by LC-MS/MS analysis
Staphylococcus aureus [12] = assay: Binding affinity to staphylococcus aureus sortase A assessed as increase in molecular mass by LC-MS/MS analysis

**Q.** With `Cc1cc(C)c(/C=C(\C#N)c2ccc(-c3oc4ccc(Cl)cc4c3C(=O)NCC(C)C)cc2)c(C)c1` as the compound, how does the IC50 [1] read?
**A.** 37.9 µM

**Q.** Which IC50 [1] does the source give for `CC(C)CNC(=O)c1c(-c2ccc(/C(C#N)=C/c3ccccc3C(=O)O)cc2)oc2ccccc12` here?
**A.** 9.7 µM

**Q.** With `Cc1ccc(/C=C(\C#N)c2ccc(-c3oc4ccc(Cl)cc4c3C(=O)NCC(C)C)cc2)cc1` as the compound, how does the IC50 [1] read?
**A.** 47.1 µM

**Q.** For `CC(C)CNC(=O)c1c(-c2ccc(C(C#N)Cc3ccc(OCc4ccccc4)cc3)cc2)oc2ccccc12` (stereo unspecified), which IC50 [1] is on record?
**A.** 15 µM

**Q.** Which IC50 [1] does the source give for `CC(C)CNC(=O)c1c(-c2ccc(/C(C#N)=C/c3ccccc3)cc2)oc2ccc(Cl)cc12` here?
**A.** 29.9 µM

**Q.** With `Cc1ccc(/C=C(\C#N)c2ccc(-c3oc4ccc(Cl)cc4c3C(=O)NCC(C)C)cc2)cc1C` as the compound, how does the IC50 [1] read?
**A.** > 100 µM

**Q.** For `COc1ccc(/C=C(\C#N)c2ccc(-c3oc4ccccc4c3C(=O)NCC(C)C)cc2)cc1`, which IC50 [1] is on record?
**A.** 11.9 µM

**Q.** With `CCc1ccc(/C=C(\C#N)c2ccc(-c3oc4c(OC)cccc4c3C(=O)NCC(C)C)cc2)cc1` as the compound, how does the IC50 [1] read?
**A.** 48.6 µM

**Q.** For `CC(C)CNC(=O)c1c(-c2ccc(/C(C#N)=C/c3ccc(OCc4ccccc4)c(OCc4ccccc4)c3)cc2)oc2ccccc12`, which IC50 [1] is on record?
**A.** 3.3 µM

**Q.** And the IC50 (Staphylococcus aureus [2])?
**A.** 2.1 µM

**Q.** And the Activity (Staphylococcus aureus [3])?
**A.** 24%

**Q.** What about the Activity (Staphylococcus aureus [4]) of the same compound?
**A.** 19.1%

**Q.** And the Activity (Staphylococcus aureus [5])?
**A.** 16%

**Q.** What about the Activity (Staphylococcus aureus [6]) of the same compound?
**A.** 7.4%

**Q.** And the Activity (Staphylococcus aureus [7])?
**A.** 2.9%

**Q.** What about the inhibition (Staphylococcus aureus [8]) of the same compound?
**A.** 26.5%

**Q.** And the IC50 (Staphylococcus aureus [9])?
**A.** 2.08 µM

**Q.** For `COc1cccc2c(C(=O)NCC(C)C)c(-c3ccc(/C(C#N)=C/c4ccc(C)cc4)cc3)oc12`, which IC50 [1] is on record?
**A.** 10.1 µM

**Q.** For `COc1cccc2c(C(=O)NCC(C)C)c(-c3ccc(/C(C#N)=C/c4ccc(C)c(C)c4)cc3)oc12`, which IC50 [1] is on record?
**A.** > 100 µM

**Q.** With `COc1ccc(/C=C(\C#N)c2ccc(-c3oc4ccc(Cl)cc4c3C(=O)NCC(C)C)cc2)cc1OC` as the compound, how does the IC50 [1] read?
**A.** 49.1 µM

**Q.** Which IC50 [1] does the source give for `Cc1ccc(/C=C(\C#N)c2ccc(-c3oc4ccccc4c3C(=O)NCC(C)C)cc2)cc1C` here?
**A.** 17.5 µM

**Q.** Which IC50 [1] does the source give for `CC(C)CNC(=O)c1c(-c2ccc(/C(C#N)=C/c3ccc(OCc4ccccc4)cc3)cc2)oc2ccccc12` here?
**A.** 6 µM

**Q.** For `COc1cccc2c(C(=O)NCC(C)C)c(-c3ccc(/C(C#N)=C/c4ccc(Br)cc4)cc3)oc12`, which IC50 [1] is on record?
**A.** 15.5 µM

**Q.** With `COc1ccc(OC)c(/C=C(\C#N)c2ccc(-c3oc4c(OC)cccc4c3C(=O)NCC(C)C)cc2)c1` as the compound, how does the IC50 [1] read?
**A.** 52.8 µM

**Q.** With `CC(C)CNC(=O)c1c(-c2ccc(/C(C#N)=C/c3ccc(Br)cc3)cc2)oc2ccc(Cl)cc12` as the compound, how does the IC50 [1] read?
**A.** 16.4 µM

**Q.** For `CCc1ccc(/C=C(\C#N)c2ccc(-c3oc4ccccc4c3C(=O)NCC(C)C)cc2)cc1`, which IC50 [1] is on record?
**A.** 9.4 µM

**Q.** With `CC(C)CNC(=O)c1c(-c2ccc(/C(C#N)=C/c3ccc(Cl)cc3)cc2)oc2ccccc12` as the compound, how does the IC50 [1] read?
**A.** 9.8 µM

**Q.** For `COc1ccc(OC)c(/C=C(\C#N)c2ccc(-c3oc4ccccc4c3C(=O)NCC(C)C)cc2)c1`, which IC50 [1] is on record?
**A.** 21.8 µM

**Q.** Which IC50 [1] does the source give for `COc1cccc2c(C(=O)NCC(C)C)c(-c3ccc(/C(C#N)=C/c4ccccc4)cc3)oc12` here?
**A.** 11.9 µM

**Q.** For `COc1ccc(OC)c(/C=C(\C#N)c2ccc(-c3oc4ccc(Cl)cc4c3C(=O)NCC(C)C)cc2)c1`, which IC50 [1] is on record?
**A.** 15.5 µM

**Q.** Which IC50 [1] does the source give for `COc1ccc(/C=C(\C#N)c2ccc(-c3oc4ccc(Cl)cc4c3C(=O)NCC(C)C)cc2)cc1` here?
**A.** 64.1 µM

**Q.** Which IC50 [1] does the source give for `COc1cccc2c(C(=O)NCC(C)C)c(-c3ccc(/C(C#N)=C/c4ccc(Cl)cc4)cc3)oc12` here?
**A.** 5.9 µM

**Q.** With `CCc1ccc(/C=C(\C#N)c2ccc(-c3oc4ccc(Cl)cc4c3C(=O)NCC(C)C)cc2)cc1` as the compound, how does the IC50 [1] read?
**A.** 13.8 µM

**Q.** For `Cc1ccc(/C=C(\C#N)c2ccc(-c3oc4ccccc4c3C(=O)NCC(C)C)cc2)cc1`, which IC50 [1] is on record?
**A.** 14.1 µM

**Q.** Which IC50 [1] does the source give for `COc1ccc(/C=C(\C#N)c2ccc(-c3oc4c(OC)cccc4c3C(=O)NCC(C)C)cc2)cc1OC` here?
**A.** 14.5 µM

**Q.** With `COc1ccc(/C=C(\C#N)c2ccc(-c3oc4ccccc4c3C(=O)NCC(C)C)cc2)cc1OC` as the compound, how does the IC50 [1] read?
**A.** 9.6 µM

**Q.** With `CC(C)CNC(=O)c1c(-c2ccc(/C(C#N)=C/c3ccc(F)cc3)cc2)oc2ccccc12` as the compound, how does the IC50 [1] read?
**A.** 19.7 µM

**Q.** With `CC(C)CNC(=O)c1c(-c2ccc(/C(C#N)=C/c3ccc(Br)cc3)cc2)oc2ccccc12` as the compound, how does the IC50 [1] read?
**A.** 19.1 µM

**Q.** Which IC50 [1] does the source give for `CC(C)CNC(=O)c1c(-c2ccc(/C(C#N)=C/c3ccc(Cl)cc3)cc2)oc2ccc(Cl)cc12` here?
**A.** 6.8 µM

**Q.** And the IC50 (Staphylococcus aureus [2])?
**A.** 54.2 µM

**Q.** And the Activity (Staphylococcus aureus [3])?
**A.** 4%

**Q.** With `CC(C)CNC(=O)c1c(-c2ccc(C(C#N)Cc3ccc(O)cc3)cc2)oc2ccccc12` (stereo unspecified) as the compound, how does the IC50 [1] read?
**A.** 7.9 µM

**Q.** What about the IC50 (Staphylococcus aureus [2]) of the same compound?
**A.** 14.3 µM

**Q.** And the Activity (Staphylococcus aureus [3])?
**A.** 2.8%

**Q.** For `COc1ccc(/C=C(\C#N)c2ccc(-c3oc4c(OC)cccc4c3C(=O)NCC(C)C)cc2)cc1`, which IC50 [1] is on record?
**A.** 12.1 µM

**Q.** For `COc1cccc2c(C(=O)NCC(C)C)c(-c3ccc(/C(C#N)=C/c4ccccc4C(=O)O)cc3)oc12`, which IC50 [1] is on record?
**A.** 28.4 µM

**Q.** Which IC50 [1] does the source give for `CC(C)CNC(=O)c1c(-c2ccc(/C(C#N)=C/c3ccc(C(F)(F)F)cc3)cc2)oc2ccccc12` here?
**A.** 12.2 µM

**Q.** For `C=C(C#N)c1ccc(-c2oc3ccccc3c2C(=O)NCC(C)C)cc1`, which IC50 [1] is on record?
**A.** 15.2 µM

**Q.** And the Activity (Staphylococcus aureus [10])?
**A.** Active

**Q.** What about the Activity (Staphylococcus aureus [11]) of the same compound?
**A.** Active

**Q.** And the Activity (Staphylococcus aureus [12])?
**A.** 344 Da

**Q.** For `Cc1cc(C)c(/C=C(\C#N)c2ccc(-c3oc4ccccc4c3C(=O)NCC(C)C)cc2)c(C)c1`, which IC50 [1] is on record?
**A.** 32.2 µM

**Q.** Which IC50 [1] does the source give for `CC(C)CNC(=O)c1c(-c2ccc(/C(C#N)=C/c3ccccc3)cc2)oc2ccccc12` here?
**A.** 8.8 µM

**Q.** What about the IC50 (Staphylococcus aureus [2]) of the same compound?
**A.** 19.7 µM

**Q.** And the Activity (Staphylococcus aureus [3])?
**A.** 17.9%

**Q.** With `CC(C)CNC(=O)c1c(-c2ccc(C(C#N)Cc3ccc(O)c(O)c3)cc2)oc2ccccc12` (stereo unspecified) as the compound, how does the IC50 [1] read?
**A.** 13.7 µM
